Source: EP2848286A1, “Cosmetic composition comprising chicoric acid” (DSM IP Assets B.V., priority 2013, dated 2015)
Like-named read-outs stand apart in the source and are kept apart here.

Test system: C3H10 T1/2 cells
Experiment: Adipocyte differentiation / automated determination of lipid accumulation in adipocytes
Type: cell-based
Details: Mus musculus, C3H 10T1/2, 168 h, 50 micromolar chicoric acid, differentiated C3H10 T1/2 adipocytes, 7 days in DM-Supplemented (200nM Insulin, 10µM Rosiglitazone)
Method: C3H10 T1/2 cells were seeded on Collagen Type I coated 24-well plates at a cell density of 3.8x10^4 cells/mL in Differentiation Base medium (DM-Base), containing DMEM without Phenol Red, supplemented with 10% FCS, 4mM L-Glutamine and 1% Pen/Strep (v/v) at 37° C in an incubator with 5% CO2 atmosphere and 85%-90% relative humidity over 72hours. After this pre-incubation, DM-Base is replaced by DM-Supplemented, containing DM-Base plus 200nM Insulin, plus 10µM Rosiglitazone. Test compounds (e.g.: chicoric acid) were added in DM-Supplemented, and kept in culture for 7 consecutive days. Each experiment was performed in triplicates. Every second day medium and compounds were renewed.
Cells were fixed by adding 1mL of 60% 2-Propanot in PBS to each well and incubated for 1.5h at 4°C. The cells were then twice washed with 1mL PBS/well. […]
Lipid droplets were quantified with the Cellomics® Array Scan® VTI HCS Reader. Fat droplets were detected with the provided SpotDetector® Bio-Application. The fluorescent dye, BODIPY® 493/503, was used to visualise and quantify fat droplets (number, area, intensity) in differentiated C3H10 T1/2 adipocytes. […] Channel one (Ch1) applies the XF93-Hoechst filter and is the focus channel in which objects (nuclei) are identified, whereas the spots (fat droplets) are detected in channel two (Ch2) using a XF93-FITC filter.

## O=C(/C=C/c1ccc(O)c(O)c1)O[C@H](C(=O)O)[C@H](OC(=O)/C=C/c1ccc(O)c(O)c1)C(=O)O (stereo in doubt) [chicoric acid, Chicoric acid]
read-out: decrease in the average number of lipid droplets per adipocyte
  inhibition at 50 µM: 69%
read-out: decrease in the average size of the lipid droplets in adipocytes
  inhibition at 50 µM: 42%
